Molecular target: T1, Ngs1 (Candida albicans, UniProt A0A1D8PRM0)
T1 construct: full length (963 aa), N-terminal 3xFLAG tag, expressed from NGS1 promoter in C. albicans ngs1 mutant; protein extract
Assay: GlcNAc-agarose pull-down from protein extract, competition with free GlcNAc, anti-FLAG Western blot
Type: binding
Conditions: 100 mM free GlcNAc as competitor; 4 °C overnight; GH3 homology domain site

T1 sequence (A0A1D8PRM0 entry or part of it): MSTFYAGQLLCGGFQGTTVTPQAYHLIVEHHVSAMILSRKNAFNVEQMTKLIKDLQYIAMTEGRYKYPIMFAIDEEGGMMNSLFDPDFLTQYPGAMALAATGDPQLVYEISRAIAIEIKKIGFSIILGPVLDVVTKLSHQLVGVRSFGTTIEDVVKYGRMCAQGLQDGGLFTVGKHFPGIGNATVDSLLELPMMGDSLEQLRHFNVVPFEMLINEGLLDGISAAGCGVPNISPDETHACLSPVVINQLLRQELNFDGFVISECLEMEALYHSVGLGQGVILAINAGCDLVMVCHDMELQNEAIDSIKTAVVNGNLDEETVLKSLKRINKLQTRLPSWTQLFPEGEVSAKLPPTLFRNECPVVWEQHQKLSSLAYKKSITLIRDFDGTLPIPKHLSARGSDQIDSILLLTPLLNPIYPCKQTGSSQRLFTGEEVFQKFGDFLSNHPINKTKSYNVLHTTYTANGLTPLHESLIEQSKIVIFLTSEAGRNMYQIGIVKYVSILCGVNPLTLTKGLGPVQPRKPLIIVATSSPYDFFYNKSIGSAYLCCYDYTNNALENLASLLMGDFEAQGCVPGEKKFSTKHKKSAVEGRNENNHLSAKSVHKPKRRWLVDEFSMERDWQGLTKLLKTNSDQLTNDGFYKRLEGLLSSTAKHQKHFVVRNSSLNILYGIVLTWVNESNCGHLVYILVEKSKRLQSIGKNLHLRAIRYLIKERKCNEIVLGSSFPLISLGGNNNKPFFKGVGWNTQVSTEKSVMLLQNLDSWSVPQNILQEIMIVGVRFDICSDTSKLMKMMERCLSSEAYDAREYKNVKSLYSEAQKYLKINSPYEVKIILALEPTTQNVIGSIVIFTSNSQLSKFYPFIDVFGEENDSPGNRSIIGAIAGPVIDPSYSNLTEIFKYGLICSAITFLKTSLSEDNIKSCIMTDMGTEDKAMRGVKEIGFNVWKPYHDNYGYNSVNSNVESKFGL

Compound: CC(=O)N[C@H]1C(O)O[C@H](CO)[C@@H](O)[C@@H]1O (stereo partly shown) [GlcNAc]
- GlcNAc-agarose pull-down from protein extract, competition with free GlcNAc, ant: The binding of GlcNAc-agarose with FLAG-Ngs1 was greatly reduced when free GlcNAc was added
